Data on 32 molecules can be found in ChEMBL document CHEMBL5728179, “Triazolopyridines” (2020).

pEC50: −log10 of the molar value.

A short description of the experiment: Cellular gamma-Secretase Assay: Human neuroglioma H4 cells overexpressing human APP695 with the Swedish double mutation (K595N/M596L) were plated at 30,000 cells/well/100 μl in 96-well plates in IMDM media containing 10% FCS, […] Hygromycin B and incubated at 37° C., 5% CO2.3-4 hr post plating, compounds are a diluted in media and 50 μl is added as 1.5-fold concentrate to achieve the final concentration. Compound incubation is performed for 24 hr. Final doses typically range from 4 μM down to 0.0013 μM in half-log steps resulting in a eight point dose response curve.Appropriate controls using vehicle only and reference compound were applied to this assay. The final concentration of Me2SO was 0.4%.After incubation at 37° C., 5% CO2, the supernatant was subjected to quantification of secreted Aβ42 by the means of an AlphaLisa assay kit (Human Amyloid beta 1-42 Kit: Cat #AL203C, Perkin Elmer). 20 μl of the cell culture supernatant was transferred to an assay plate. Then 10 μl of a mixture of the AlphaLisa coupled capture antibody and the biotinylated detection antibody was added and incubated for 3 hours at room temperature while softly shaking the assay plate. After a further addition of 20 μl of the Donor beads the assay plate was incubated for 30 min at room temperature and constant shaking without exposure to direct light. The assay plate was then read on a Paradigm AlphaLisa Reader using the build-in program with excitation at 680 nm and emission at 570 nm.The measured signals were then used to calculate IC50 values for inhibition of Aβ42 secretion by nonlinear regression fit analysis using XLfit 5.3 software (IDBS).
The pEC50 is −log10 of the EC50, conventionally taken in molar units. With `CC(C)c1ccc(OCC(F)(F)F)n2nc(N[C@@H]3[C@@H]4CC[C@H]3CN(c3ccnc(Cl)c3)C4)nc12`, the pEC50 is 7.93.
The value for `COc1cc(Nc2nc3c(C(C)C)ccc(OCC(F)(F)F)n3n2)ccc1-c1ccnc(C)c1` was 7.67.
`FC(F)(F)COc1cccc2nc(N[C@@H]3[C@@H]4CC[C@H]3CN(c3ccnc(C(F)(F)F)c3)C4)nn12`: the negative logarithm of the EC50 (pEC50) is 7.36.
The value for `Cc1ncn(-c2ccc(Nc3nc4c(C(C)C)ccc(OCC(F)(F)F)n4n3)cc2OC(F)F)n1` was 7.47; that for `Cc1cc(N2C[C@H]3CC[C@@H](C2)[C@@H]3Nc2nc3c(C(C)(C)O)ccc(O[C@@H](C)C(F)(F)F)n3n2)ncn1` was 7.46; that for `COc1cc(N2C[C@H]3CC[C@@H](C2)[C@@H]3Nc2nc3c(C(C)C)ccc(OCC(F)(F)F)n3n2)cnn1` was 7.67.
The value for `Cc1cc(N2C[C@H]3CC[C@@H](C2)[C@@H]3Nc2nc3c(C)ccc(OCC(F)(F)F)n3n2)ncn1` was 7.52; that for `COc1cc(Nc2nc3c(C(C)(C)O)ccc(O[C@@H](C)C(F)(F)F)n3n2)ccc1-n1cnc(Cl)n1` was 7.37.
On to `Cc1cc(N2C[C@H]3CC[C@@H](C2)[C@@H]3Nc2nc3c(C(C)C)ccc(OCC(F)(F)F)n3n2)ncn1`, for which the negative-log EC50 (pEC50) was 7.41.
On to `COc1cc(Nc2nc3c(C(F)(F)F)ccc(O[C@@H](C)C(F)(F)F)n3n2)ccc1-n1cnc(C)n1`, for which the pEC50 is 7.39.
The value for `Cc1noc(N2C[C@H]3CC[C@@H](C2)[C@@H]3Nc2nc3c(C(C)C)ccc(O[C@@H](C)C(F)(F)F)n3n2)n1` was 7.31; that for `Cc1cn(-c2ccc(Nc3nc4c(C(C)(C)O)ccc(O[C@@H](C)C(F)(F)F)n4n3)cc2C#N)cn1` was 7.43; that for `CC(C)c1ccc(O[C@@H](C)C(F)(F)F)n2nc(N[C@@H]3[C@@H]4CC[C@H]3CN(c3cnnc(Cl)c3)C4)nc12` was 7.88.
With `Cc1cn(-c2ccc(Nc3nc4c(C(C)C)ccc(OCC(F)(F)F)n4n3)cc2C#N)cn1` the figure was 7.31.
With `Cc1ccc(OCC(F)(F)F)n2nc(N[C@@H]3[C@@H]4CC[C@H]3CN(c3cnnc(Cl)c3)C4)nc12` the figure was 7.33.
For `Cc1ccc(OCC(F)(F)F)n2nc(N[C@@H]3[C@@H]4CC[C@H]3CN(c3ccnc(C(F)(F)F)c3)C4)nc12`, the pEC50 was 7.69.
With `CC(C)c1ccc(OCC(F)(F)F)n2nc(N[C@@H]3[C@@H]4CC[C@H]3CN(c3ccnc(C(F)(F)F)c3)C4)nc12` the figure was 7.48; with `COc1cc(Nc2nc3c(C(C)C)ccc(OCC(F)(F)F)n3n2)ccc1-n1cnc(C)n1`, 7.58.
The value for `COc1cc(N2C[C@H]3CC[C@@H](C2)[C@@H]3Nc2nc3c(C(C)C)ccc(O[C@@H](C)C(F)(F)F)n3n2)cnn1` was 7.85; that for `Cc1nnc(N2C[C@H]3CC[C@@H](C2)[C@@H]3Nc2nc3c(C(C)C)ccc(O[C@@H](C)C(F)(F)F)n3n2)o1` was 7.36.
The value for `Cc1cc(N2C[C@H]3CC[C@@H](C2)[C@@H]3Nc2nc3cccc(OCC(F)(F)F)n3n2)sn1` was 8.15; that for `COc1cc(N2C[C@H]3CC[C@@H](C2)[C@@H]3Nc2nc3c(C)ccc(OCC(F)(F)F)n3n2)ccn1` was 7.81.
With `C[C@H](Oc1ccc(C(C)(C)O)c2nc(N[C@@H]3[C@@H]4CC[C@H]3CN(c3cnnc(Cl)c3)C4)nn12)C(F)(F)F`, the pEC50 is 7.40.
The value for `COc1cc(N2C[C@H]3CC[C@@H](C2)[C@@H]3Nc2nc3c(C(C)C)ccc(OCC(F)(F)F)n3n2)ccn1` was 7.60; that for `Cc1cc(N2C[C@H]3CC[C@@H](C2)[C@@H]3Nc2nc3c(C(C)(C)O)ccc(OCC(F)(F)F)n3n2)ncn1` was 7.36; that for `Cc1noc(N2C[C@H]3CC[C@@H](C2)[C@@H]3Nc2nc3c(C(C)C)ccc(OCC(F)(F)F)n3n2)n1` was 7.43.
With `CC(C)(O)c1ccc(OCC(F)(F)F)n2nc(N[C@@H]3[C@@H]4CC[C@H]3CN(c3ccnc(C(F)(F)F)c3)C4)nc12` the figure was 7.35.
The value for `CC(C)c1ccc(OCC(F)(F)F)n2nc(N[C@@H]3[C@@H]4CC[C@H]3CN(c3cnnc(Cl)c3)C4)nc12` was 7.63; that for `COc1cc(Nc2nc3c(C(C)(C)O)ccc(O[C@@H](C)C(F)(F)F)n3n2)ccc1-n1cnc(C)n1` was 7.41.
As for `Cc1ncn(-c2ccc(Nc3nc4c(C(C)(C)O)ccc(OCC(F)(F)F)n4n3)cc2OC(F)F)n1`, the pEC50 is 7.34.
As for `COc1cc(N2C[C@H]3CC[C@@H](C2)C3Nc2nc3c(C(C)C)ccc(O[C@@H](C)C(F)(F)F)n3n2)ccn1` (some centres not stated), the negative logarithm of the EC50 (pEC50) was 7.71.
The value for `Cc1ccc(OCC(F)(F)F)n2nc(N[C@@H]3[C@@H]4CC[C@H]3CN(c3ccnc(Cl)c3)C4)nc12` was 8.04.
